# “And” between values parts separate entries of the source, which are not always exact repeats. Equal values may be shown once.
# How the values were obtained:
# Assay type in all cases: cell-based
# [1] = tested on: methionine sulphoxide reductase (Msr); assay: Msr activity in protein extracts of treated human keratinocytes (N-acetyl-(3H)-methionine-R,S sulphoxide substrate); details: dose of 0.05%; human keratinocytes in culture, 24 h treatment
# Description: The keratinocytes are obtained from grafts of skin originating from abdomens of healthy donors aged 47 years.
# Lipochroman-6 powder (supplier: Lipotec) is first diluted in 20 μl of absolute ethanol. Then a stock solution at 10 mg/ml in the K-SFM-S medium is prepared.
# An intermediate solution at 1 mg/ml (dilution 20 μl in 200 μl of K-SFM-S medium) is prepared from the lipochroman-6 stock solution.
# The dilutions are carried out in the K-SFM-S medium on the basis of the intermediate solution at 1 mg/ml.
# The medium is drawn off from the cell flasks (passage P3) and replaced with the medium containing the different dilutions of actives. After 24 hours of treatment, the cells are washed with PBS buffer and then treated with trypsin. The cells are finally counted with a NucleoCounter from Chemometec (Bioblock). […]
# The Msr activity is measured on the basis of the protein extracts by using the substrate N-acetyl-(^3H)-methionine-(R, S) sulphoxide in a reaction mixture of 30 μl containing Tris-HCl pH 7.5, 25 mM, MgCl2 10 mM, DTT 15 mM, at 37° C. […]
# The required quantity of proteins is withdrawn and made up with water to a reaction volume of 20.8 μl in a 2 ml Eppendorf tube stored in ice. […]
# Following centrifugation at 15 000 g for 5 minutes at ambient temperature, 1 ml of the upper, organic phase is withdrawn and is counted in a scintillation vial and admixed with 2 ml of Sigma Fluor scintillant. […]
# [2] = tested on: gene MsrB (msrb); assay: Quantitative RT-PCR (RT-Q-PCR) of msrb gene expression in normal human epidermal keratinocytes; details: 24 h, NHK; for % Control (msrb/G3PDH): control = 100; for Mb Cycles (msrb): triplicate PCR cycle numbers
# Description: (§1) The effect of lipochroman-6 on the basal expression of genes coding for the proteins MsrA and MsrB is evaluated by the method of quantitative RT-PCR (real-time PCR; RT-Q-PCR).
# (§2) The model selected is that of normal human epidermal keratinocytes (NHK) cultivated in vitro.
# (§3) Type: normal human epidermal keratinocytes (NHK)
# (§4) Test medium: SFM medium without EGF and without PE (SFM-PE-EGF)
# (§5) Lipochroman-6: stock solution at 10 mg/ml in ethanol, diluted in test medium at concentrations of 0.01 mg/ml and 0.005 mg/ml.
# (§6) The keratinocytes are seeded and pre-cultured for 24 hours in complete SFM culture medium (24-well plates) and then placed in SFM-PE-EGF medium.
# (§7) At confluence, the cells are treated or not (control) with the test product and are cultured for 24 h at 37° C. and 5% CO2. Each treatment is carried out in triplicate. The culture supernatants are then harvested and the cell layers are rinsed with PBS solution (Invitrogen), and then 300 μl of tri-reagent (Sigma) are added. The plates are subsequently frozen at −80° C.
# (§8) The expression of the genes msra and msrb is evaluated by RT-Q-PCR on the basis of the messenger RNA (mRNA) extracted from the cell layers of each treatment. For each treatment, the three samples are combined into one prior to the extraction of the RNA.
# (§9) The main steps of the protocol are as follows: • Extraction of the total RNA using tri-reagent, according to the protocol of the supplier. • Removal of traces of potentially contaminating DNA by treatment with the DNA-free system (Ambion). • Implementation of the reverse transcription reaction in the presence of the primer oligo(dT) and the enzyme Superscript II (Gibco).
# (§10) The PCR reactions are carried out with the aid of the following primers: […]
# (§11) The PCR (polymerase chain reaction) reactions are carried out by quantitative PCR with the Light Cycler system (Roche Molecular Systems Inc.) according to the procedures recommended by the supplier. To perform correctly, this analytical system requires prior development of the conditions of analysis of the different primers. This system is formed of two main components: an optimized thermocycler, which allows extremely rapid heat transfers, and a fluorimeter, which continuously measures the fluorescence intensity incorporated in the DNA (detection at 521 nm). The reaction mixture (10 μl final) for each sample is as follows: • 2.5 μl of cDNA diluted to 1/10th • primers of the different markers used • reaction mixture (Roche) containing the enzyme taq DNA polymerase, the marker SYBR Green I (a fluorophore which is integrated into the double-stranded DNA in the course of the elongation step) and MgCl2.
# (§12) The incorporation of fluorescence into the amplified DNA is measured continuously during the PCR cycles. […] The number of cycles is determined on the basis of the “exit” points of the fluorescence curves. For a given marker analysed, the later the exit of a sample (high number of cycles) the lower the initial number of copies of the mRNA. The relative expression (RE) value is expressed in arbitrary units (AU) in accordance with the following formula: (½^number of cycles)×10^6.
# [3] = tested on: gene MsrA (msra); assay: Quantitative RT-PCR (RT-Q-PCR) of msra gene expression in normal human epidermal keratinocytes; details: 24 h, NHK; for % Control (msra/G3PDH): control = 100; for Mb Cycles (msra): triplicate PCR cycle numbers
# Description: as §1, §2, §3, §4, §5, §6, §7, §8, §9, §10, §11, §12
# [4] = tested on: normal human keratinocytes (NHK); assay: Immunostaining (DNPH/anti-DNP) of oxidized proteins in normal human keratinocytes, confocal image analysis; details: for DNP marking/No. of cells / DNP marking/surface area measured / Surface area DNP marking: 48 h; for Proportion of oxidized proteins/cells, KHN 0002: donor KHN 0002; for Proportion of oxidized proteins/cells, KHN 9726: donor KHN 9726; for Proportion of oxidized proteins/cells, Mean: mean of two donors
# Description: Normal human keratinocytes (NHK) isolated from harvesting of human skin carried out on two different donors (labelled KHN002 and KHN 9726 hereinafter) are cultured in T75 flasks in complete KSFM medium (KSFMc) (Invitrogen GIBCO) at 37° C. and 5% CO2 and are seeded at 20 000 cells per well in 8-well Lab-Tek II culture systems (Nalge Nunc International).
# After 48 h of culture, the cells are treated with the treatment solutions (see below).
# A 0.004% weight/volume lipochroman-6 solution is prepared (solution A).
# This is done by dissolving 20 mg of lipochroman-6 powder (supplier: Lipotec) in 2 ml of ethanol (solution at 10 mg/ml). This solution is diluted (40 μl of the stock solution in 10 ml of KSFm medium) to give solution A.
# The treatment solutions are prepared by diluting solution A prepared above in the KSFMc medium, to give the correct percentage of lipochroman-6.
# Treatments carried out on 3 wells per cell type: • control: KSFMc • solvent control: 0.1% solution of ethanol in KSFMc medium • 0.001% lipochroman • 0.002% lipochroman
# After 48 hours of treatment, the KSFMc is drawn off. The cells are rinsed with phosphate buffer (PBS) (PBS tablets, Invitrogen GIBCO), then fixed with formalin (formalin solution 10% neutral buffered, Sigma) for 10 minutes at ambient temperature. After rinsing with PBS, the culture chambers are filled with 0.1% triton solution (Triton X-100, Sigma) for 10 minutes, then rinsed with PBS.
# The subsequently disassembled culture chambers and the slides are immersed in a solution of 2,4-dinitrophenylhydrazine (300 mg of DNPH (Fluka)) in an ethanol/sulphuric acid (98.5 ml/1.5 ml) mixture for 30 minutes.
# The dinitrophenyl (DNP) groups fixed to the oxidized proteins are recognized by a primary anti-DNP antibody.
# For this purpose, in a first step, the slides are covered with a solution of primary antibody (monoclonal mouse anti-DNP antibody, Sigma), diluted to 1/500th in a 1% BSA/PBS solution, and are incubated for 60 minutes in an oven at ambient temperature and then rinsed with a 0.1% Tween-PBS solution (Tween20, Merck). In a second step, the cells are covered with a secondary antibody solution (Alexafluor 546 goat anti-mouse, Invitrogen) in a 1% BSA/PBS solution, and are incubated away from the light for 60 minutes. The slides are subsequently rinsed with PBS-Tween and then with PBS.
# The photographs are made by confocal microscopy (Axioplan microscope from Zeiss and krypton-argon laser from BioRad) with the aid of the LaserSharp 2000 software (BioRad). For each condition, three photographs are made with the ×40 lens, according to the same acquisition parameters (gain, iris).
# In practice, an excitation fluorescence at 546 nm is applied by the confocal laser to the cells. The fluorochrome Alexafluor 546, which represents the oxidized proteins, emits fluorescence at 573 nm, which is recovered by a specific filter and can be observed. The measured fluorescence is therefore directly proportional to the amount of oxidized proteins.
# The photographs are analysed with the aid of the Leica QWin image analysis software. A program allows the DNPH staining to be quantified in order to evaluate the level of oxidized proteins and the number of cells.
# The program detects the fluorescent staining of the oxidized proteins. A detection zone which is as representative as possible (number, size, cell density, intensity of marking) is delimited. The fluorescence of the oxidized proteins is measured in the delimited zone, and the cells in the same zone are numbered by counting of the cell nuclei (see FIGS. 2a, 2b, 2c, 2d and 2e).
# The effect of lipochroman-6 on the oxidation of proteins is measured on the two types of normal human keratinocytes (NHK). This is done by estimating the surface area of staining of the oxidized proteins, the surface area of the measurement zone and the number of cells in the measurement surface area, using an image processing system.
smiles,measurement,setting,value
COc1cc2c(cc1O)CCC(C)(C)O2 [Lipochroman-6],Increase of Msr activity,[1],44%
same,Mb/G3PDH (msrb/G3PDH),[2]; 0.005 mg/ml,1.76 × 10^−2
same,RE*Mb (AU) (msrb relative expression),[2]; 0.005 mg/ml,3.516 × 10^−2 AU
same,% Control (msrb/G3PDH),[2]; 0.005 mg/ml,127%
same,Mb Cycles (msrb),[2]; 0.005 mg/ml,24.68 and 24.86 and 24.75
same,Mb/G3PDH (msrb/G3PDH),[2]; 0.01 mg/ml,2.05 × 10^−2
same,RE*Mb (AU) (msrb relative expression),[2]; 0.01 mg/ml,4.018 × 10^−2 AU
same,% Control (msrb/G3PDH),[2]; 0.01 mg/ml,148%
same,Mb Cycles (msrb),[2]; 0.01 mg/ml,24.62 and 24.60 and 24.49
same,Mb/G3PDH (msra/G3PDH),[3]; 0.005 mg/ml,4.14 × 10^−3
same,RE*Mb (AU) (msra relative expression),[3]; 0.005 mg/ml,8.251 × 10^−3 AU
same,% Control (msra/G3PDH),[3]; 0.005 mg/ml,116%
same,Mb Cycles (msra),[3]; 0.005 mg/ml,26.84 and 26.91 and 26.81
same,Mb/G3PDH (msra/G3PDH),[3]; 0.01 mg/ml,4.42 × 10^−3
same,RE*Mb (AU) (msra relative expression),[3]; 0.01 mg/ml,8.66 × 10^−3 AU
same,% Control (msra/G3PDH),[3]; 0.01 mg/ml,124%
same,Mb Cycles (msra),[3]; 0.01 mg/ml,26.83 and 26.79 and 26.73
same,DNP marking/No. of cells,[4]; 0.001% lipochroman,82.1 B
same,DNP marking/surface area measured,[4]; 0.001% lipochroman,28.7% D
same,Surface area DNP marking,[4]; 0.001% lipochroman,3776 C
same,"Proportion of oxidized proteins/cells, KHN 0002","[4]; 0.001% lipochroman-6, 48 h",76.3
same,"Proportion of oxidized proteins/cells, KHN 9726","[4]; 0.001% lipochroman-6, 48 h",88
same,"Proportion of oxidized proteins/cells, Mean","[4]; 0.001% lipochroman-6, 48 h",82.1
same,DNP marking/No. of cells,[4]; 0.002% lipochroman,52.0 A
same,DNP marking/surface area measured,[4]; 0.002% lipochroman,18.4% B
same,Surface area DNP marking,[4]; 0.002% lipochroman,2415 B
same,"Proportion of oxidized proteins/cells, KHN 0002","[4]; 0.002% lipochroman-6, 48 h",60.9
same,"Proportion of oxidized proteins/cells, KHN 9726","[4]; 0.002% lipochroman-6, 48 h",43
same,"Proportion of oxidized proteins/cells, Mean","[4]; 0.002% lipochroman-6, 48 h",52

# From patent US20100063139A1, “USE IN A COSMETIC COMPOSITION OF LIPOCHROMAN-6 TO ENHANCE THE RADIANCE OF THE COMPLEXION OF THE SKIN, ESPECIALLY THE SKIN OF THE FACE” (LVMH RECHERCHE, priority 2008, published 2010)
